According to US9968585B2, “Prevention or treatment agent for cerebral amyloid beta storage diseases” (TOYAMA CHEMICAL CO., LTD., priority 2014, dated 2018):

Legend:
[1] = system: patient with complication of AZD and CAA; test: Clinical case, Example 1: patient with complication of AZD and CAA; type: in vivo, human
Excerpt: Patient
Family history: […] died of cerebral hemorrhage (type unknown) in his 50s. […]
Past history: deep white matter lesions (diagnosed by head MRI, T2-WI), lateral ventricular low density area (diagnosed by head CT), and moderate cerebral atrophy in the cerebral cortex including the hippocampus, parietal lobe, and frontal lobe and mild disturbance of memorization had been observed. However, there was no particular problem in everyday life.
History of present illness: person, walking difficulty (decreased speed and decreased stability of walking) appeared and then progressed slowly. Continuous walking of long distances of 600 m or more and walking with a heavy load (10 kg or more) in their hand or on their shoulder became difficult. Short-stepped gait and frontal gait appeared sometimes, with no fall. Cerebrovascular disorder was suspected and examinations by CT and MRI (other than T2-WI) were conducted. However, any responsible lesions, which were likely to develop relatively rapid walking difficulties, were not found, other than deep white matter lesions and moderate cerebral atrophy, which were observed previously. Parkinson's disease (syndrome) was also suspected and a therapeutic agent for the disease was temporarily administered, which was stopped because of the lack of efficacy. […] Instability of walking also progressed relatively rapidly and it became difficult to walk outdoor without a walking stick.
Meanwhile, MRI (T1/2WI, T2-WI) detected multiple micro-bleeding mainly in the area from bilateral basal ganglia (thalamus and hypothalamus) to upper brain stem and the patient was diagnosed with CAA. The patient was also diagnosed with AZD based on diffuse cerebral atrophy including hippocampus and a wide range of cerebral cortex and moderate dementia. […]
For walking, an assistance, or at least handrail, became always necessary and continuous walking of distances of 50 m or more became difficult (unstable) even with an assistance. Furthermore, the patient was frequently found in a somnolence state even in the daytime and occasional decrease in the level of consciousness during meal caused difficulty in swallowing. Standing and walking became impossible during a period of repeated high fever. Chest CT detected a sign of aspiration pneumonia and the patient was admitted to a nearby hospital.
Immediately after the hospitalization, administration of antibiotics against the pulmonary inflammatory disease was started and high dose administration of mineralocorticoid (200 mg injection of Hydrocortone/day, for 7 days in plan) was also started for the purpose of steroid supplementation against the potential hypoadrenalism (mineral imbalance), due to the previous sustained steroid (5 mg) therapy. […] On Day 9 after the hospitalization, the patient became almost bedridden and nonresponsive. On Day 10 after the hospitalization, administration of a high dose of glucocorticoid (30 mg/day of Predonine) for anti-inflammatory effect was therefore started for the purpose of ameliorating the cerebral hypofunction, based on the informed consent.
However, from Day 20 after the hospitalization, a somnolence tendency appeared again and the symptoms of decline of cognitive ability, inability to walk, lack of speech, urine incontinence, apraxia and agnosia appeared again.
Since no tendency to alleviate the symptoms was observed, on Day 22 after the hospitalization, administration of 25 mg of iguratimod (for example, the trade name “Kolbet” produced and sold as an antirheumatic drug by Taisho Toyama Pharmaceutical Co., Ltd. or the trade name “Careram” produced and sold by Eisai Co., Ltd.), in addition to the high dose glucocorticoid therapy, was started for the purpose of ameliorating cognitive impairment, walking impairment, decrease of energy and spontaneity, and aphasia, apraxia, and agnosia, based on the informed consent. […]

[2] = system: production of interleukin-1 and 6 (IL-1/6) and tumor necrosis factor (TNFα) from monocyte lineage cells (macrophages); details: in inflammation; cited from earlier work
[3] = system: patient with moderate dementia caused by AZD; test: Clinical case, Example 2: patient with moderate dementia caused by AZD, not associated with CAA; type: in vivo, human
Method: A person became indifferent to social activities and meeting people 3 to 4 years ago. Cognitive impairment appeared to the degree to cause difficulty in daily life activities 2 years ago. One year ago, cognitive impairment further progressed and MMSE was conducted to get scores of 14 or less. Since a head imaging detected moderate atrophy in the cerebral cortex including the parietal lobe and the hippocampus, the patient was diagnosed with “moderate dementia caused by AZD” based on the clinical and brain imaging observations. In the everyday life, disturbance of memorization was observed, in which the patient forgot contents of conversation in 5 minutes and purchased the same thing repeatedly when they went out alone. The patient liked cooking previously, but became unable to cook or adjust the taste. […] The patient became unable to manage own medication such as an antihypertensive agent (cognitive impairment on table and calculation) and management by a family member became necessary. Since efficacy (suppression of progressive symptoms) of a conventional drug against AZD was not observed for a half year or more, the administration of iguratimod at 25 mg/day was started, based on the informed consent to the patient and their family, and the dose was increased to 50 mg/day 4 weeks later.

[4] = compared with MTX and SASP; cited from earlier work
[5] = 6 months after starting the administration
[6] = at discharge, 2 months after starting the administration

C[C@]12CCC(=O)C=C1CC[C@@H]1[C@@H]2[C@@H](O)C[C@@]2(C)[C@H]1CC[C@]2(O)C(=O)CO [Hydrocortone]
neurological symptoms (energy, speech, cognitive function, walking ability) ([1]; 200 mg injection/day, from 3 days after the start of the steroid replacement therapy): increase in energy and speech, amelioration of cognitive function, and improvement of walking ability were observed
neurological symptoms ([1]; 200 mg injection/day, from Day 5 to 6 after the start of administration): the symptoms gradually aggravated

C[C@]12C=CC(=O)C=C1CC[C@@H]1[C@@H]2[C@@H](O)C[C@@]2(C)[C@H]1CC[C@]2(O)C(=O)CO [Predonine]
neurological symptoms (somnolence, energy, speech, walking, meals) ([1]; high dose glucocorticoid (30 mg/day of Predonine) started on Day 10 after hospitalization): alleviated a neurological symptom (decrease in somnolence), increased energy and speech
prevention of progression of the symptoms ([1]; sustained glucocorticoid therapy at maximum dose for the patient's age, for 10 days or more, symptoms reappeared from Day 20 after hospitalization): cannot prevent the progression of the symptoms

CS(=O)(=O)Nc1cc2occ(NC=O)c(=O)c2cc1Oc1ccccc1 [iguratimod, N-(3-formamido-4-oxo-6-phenoxy-4H-chromen-7-yl) methanesulfonamide]
effect on production of IL-1/6 and TNFα from monocyte lineage cells (macrophages) [2]: suppressing effects
head imaging: progression of cerebral atrophy ([3]; 5 months after starting the administration): the progression of cerebral atrophy was not observed
Scores of MMSE ([3]; 5 months after starting the administration, scores one year before 14 or less): ≥ 17
symptoms in daily life ([3]; iguratimod 25 mg/day, 50 mg/day after 4 weeks, 3 months after starting the administration): symptoms such as getting lost and failing to go home and purchasing the same thing repeatedly had disappeared
continuous walking distance with an assistance [1, 5]: about 100 m
steps of stairs walked up with an assistance and use of handrail [1, 5]: 15 steps
head MRI: novel vascular abnormality or progression of cerebral atrophy ([1]; 6 months after starting the administration, compared with MRI before starting): did not detect any appearance of novel vascular abnormality or progression of cerebral atrophy
head imaging by 3T-MRI:SWI: progression of cerebral atrophy and other lesions ([1]; 7 months and 19 months after the beginning of iguratimod): the progression of cerebral atrophy and other lesions was not apparent
eating behavior ([1]; a half year after starting the administration): able to have meals by oneself using chopsticks
continuous walking distance with an assistance [1, 6]: about 50 m
steps of stairs walked up with an assistance at both arms [1, 6]: 8 steps
spontaneity and neurological symptoms ([1]; iguratimod 25 mg added to high dose glucocorticoid, 2 days after starting the administration): apparent amelioration of spontaneity was observed
mini-mental state examination (MMSE) score ([1]; one year after starting oral administration, score before starting 10 or less (severe dementia)): ≥ 10
symptoms after steroid agent stopped completely ([1]; one year after starting the administration of iguratimod): no aggravation of symptoms
efficacy in rheumatoid arthritis [4]: efficacy equivalent to MTX and SASP
